{"source": "patent US20250269039A1", "about": "“THERAPEUTIC-OLIGONUCLEOTIDES ACTIVATED BY NUCLEASES” (priority 2020, published 2025)", "key": {"[1]": {"system": "S. aureus ATCC 29213 (MSSA)", "assay": "Broth microdilution MIC and growth inhibition", "assay_type": "cell-based, Staphylococcus aureus", "description": "(§1) Bacteria strains. S. aureus NCTC 12493 (MRSA), S. aureus ATCC 29213 (MSSA), S. aureus ATCC 43300 (MRSA), S. aureus ATCC 1707 (MRSA), S. aureus ATCC 1717 (MRSA), S. aureus ATCC 1747 (MRSA), S. aureus ATCC 1761 (MRSA), S. aureus ATCC 1766 (MRSA), S. aureus ATCC 1768 (MRSA), S. epidermidis ATCC 35984, E. coli ATCC 25922, K. pneumoniae ATCC 13883, P. mirabilis ATCC 25933, S. enterica ATCC 14028 and P. aeruginosa ATCC 10145 strains were used in this study. Bacteria were initially inoculated onto tryptone soy agar with 5% defibrinated sheep blood (Thermo Fisher Scientific, Inc., Waltham, MA, USA) and incubated at 37° C. for 24 hours. Then, single colonies of each strain were transferred to tryptone soy broth (Thermo Fisher Scientific) for the nuclease activity assay or antimicrobial susceptibility testing, respectively.\n(§2) Antimicrobial susceptibility testing. Minimal inhibitory concentrations (MIC) of all nucleoside analogues and TOUCANs against each bacteria strain were determined using broth microdilution method. A single colony obtained from overnight culture on tryptone soy agar with 5% defibrinated sheep blood was inoculated in cation-adjusted Mueller Hinton Broth and adjusted to 10^6 CFU/mL. TOUCANs were prepared in PBS+/+ (treatment) and serial dilutions were made in 96-well polystyrene round bottom microwell plates with 50 μL final volume for each concentration. PBS+/+ was used as untreated control. Next, 50 μL bacteria solutions were added to each well to a final bacteria concentration of 5×10^5 CFU/mL. Plates were incubated at 37° C. in Cytation 1 Cell Imaging Multimode Reader. Growth curves were obtained by measuring optical densities at 600 nm every 10 minutes for 18 hours using Cytation 1 Cell Imaging Multimode Reader. In addition, visual inspection of the plates was carried out after 18 hours and photographs were taken. MICs were defined as the lowest drug concentration in the microwell at which bacterial growth was not visible at the end of the incubation period. Besides MIC determination, specificity of TOUCAN 7mGe was also shown with subcultures on chromogenic media. For this purpose, 5 μL of different concentrations of each strain were inoculated onto CHROM agar Orientation Media (Becton Dickinson) and the bacterial growth of each bacteria strain tested was observed by naked eye after incubation at 37° C. for 24 hours. Finally, photographs of the chromogenic media were taken."}, "[2]": {"system": "S. aureus ATCC 43300 (MRSA)", "assay": "Broth microdilution MIC and growth inhibition", "assay_type": "cell-based, Staphylococcus aureus", "settings": "for MIC: 18 h, TOUCAN as NA equivalent", "description": "as §1, §2"}, "[3]": {"system": "S. aureus ATCC 1766 (MRSA)", "assay": "Broth microdilution MIC and growth inhibition", "assay_type": "cell-based, Staphylococcus aureus", "settings": "for MIC: 18 h, TOUCAN as NA equivalent; for growth inhibition, dose response: ATCC-1766 (MRSA), FIGS. 5e-f", "description": "as §1, §2"}, "[4]": {"system": "S. epidermidis ATCC 35984", "assay": "Broth microdilution MIC and growth inhibition (control bacteria)", "assay_type": "cell-based, Staphylococcus epidermidis", "settings": "for MIC: 18 h, TOUCAN as NA equivalent", "description": "as §1, §2"}, "S. aureus ATCC1766": {"system": "S. aureus ATCC1766", "assay": "Mouse thigh muscle infection model: gross pictures, histopathology, bacteria counts", "assay_type": "in vivo, mice", "settings": "for histopathological analysis of infected leg / visible bacterial infection of infected leg (gross photographs): mice, i.v.; for histopathological analysis of infected leg: 20 mg/kg/24 hour Floxuridine equivalent, FIG. 7d-g; for visible bacterial infection of infected leg (gross photographs): four doses equivalent to 5 mg/kg Floxuridine over 24 hours, FIG. 7a-c", "description": "In vivo assessment of the therapeutic efficacy of TOUCANs in a mouse infection model. All animal experiments described in this study were conducted at the Linköping University Center for Biomedical Resources and were approved by the Swedish Ethical Board “Jordbruksverket” under the animal protocol 1253. All experiments were conducted according to the principles expressed in the Declaration of Helsinki. Six-weeks old female […] mice were divided into three different groups: Placebo (saline solution), Floxuridine alone and TOUCAN 7mFx, with 8 mice per group. First, to induce the infection, S. aureus ATCC1766 strain was cultured on tryptone soy agar with 5% defibrinated sheep blood, and single colonies were transferred to 25 mL tryptone soy broth and incubated at 37° C. for 12 hours with 200 rpm shaking. Next, bacteria solution was diluted 1/100 using PBS+/+ (˜10^7 CFU/mL) and 50 μL (˜5×10^5 CFU) were injected into the right thigh muscles of all mice under sterile conditions and 2% isoflurane anesthesia. This method was optimized based on our previous animal infection model.^16 In this model, the left uninfected leg was used as control for each animal. This model induces reproducible infections after 24 hours. Next, the therapeutic regime was adapted from a previous study that validated the efficacy of several antibiotics against S. aureus.^28 We have treated the mice for 24 hours with four doses of TOUCAN 7mFx equivalent to 5 mg/kg of Floxuridine in 100 μL of PBS−/−, administered intravenously by tail vein injections. The first dose was administered after 2 hours post-inoculation, followed by 3 additional injections at the same concentration every 6 hours. In total, each animal was given TOUCAN 7mFx equivalent to 20 mg/kg/24 hour of Floxuridine. In this study, two additional groups, Placebo and Floxuridine alone, were also tested in infected animals. In the Placebo group, mice were injected with a saline solution (PBS), and in the Floxuridine group, mice were injected with 20 mg/kg/24 hours of Floxuridine under the same conditions indicated for TOUCAN 7mFx. After 24 hours, blood samples were collected, and mice were euthanized. For a thorough blood analysis, we have included an additional group of uninfected/untreated mice as control. Next, gross pictures of both legs were taken and samples for histopathological and bacteriological analyses were collected. At least four mice per group per analysis were used in this study.\nGross pictures. Once the mice were euthanized, the skin from legs and dorsal part was removed very carefully to allow observation of the bacterial infection and the associated tissue damage. Next, photographs were taken to document the localized infection for each animal.\nHistopathological analysis. To evaluate the histopathological features of infected and uninfected tissues, the thigh muscles of the animals were dissected. Subsequently, tissues were transferred to 4% buffered formaldehyde solution and stored at 4° C. for 24 hours. Then, tissues were removed from the formaldehyde solution and transferred into 50% ethanol for 15 minutes followed by 70% ethanol until processed. Next, tissues were fixed, dehydrated and wax infiltrated using a Leica TP1020 system for 7 hours. Subsequently, tissues were embedded in paraffin using a Leica EG 1150 system. The sections slides were prepared using an Automatic Rotary Microtome HM355S system and finally, samples were stained with Hematoxylin-Eosin (H&E) using an Automatic Leica ST4020 Linear Stainer. The slides were imaged using an Olympus BX51 light microscope.\nBacteria counts. To measure viable bacteria in mice, infected and uninfected tissues from both legs were collected, transferred to individual 1.5 mL vials and weighted on a microbalance. Each sample was homogenized in 1 mL of PBS using Fisherbrand Bead Mill 4 automatic homogenizer (Fisher Scientific). The homogenized solutions were serially diluted to 1:100, 1:1.000, 1:10.000 and 1:100.000. […]"}, "[5]": {"settings": "infected leg, CFU/g, after 24 hours, FIG. 7h"}}, "note": "Like-named read-outs stand apart in the source and are kept apart here.", "data": [{"compound": "O=c1[nH]c(=O)n([C@H]2C[C@H](O)[C@@H](CO)O2)cc1F", "note": "[Floxuridine, reference compound]", "values": [{"measurement": "MIC", "setting": "[1]; Staphylococcus aureus, S. aureus ATCC 29213 (MSSA), 18 h, TOUCAN as NA equivalent, read-out: MIC", "result": 0.08, "unit": "µg/mL"}, {"measurement": "MIC", "setting": "[1]; Staphylococcus aureus, Table 1, S. aureus ATCC 29213, read-out: MIC", "result": 0.08, "unit": "µg/mL"}, {"measurement": "% Growth inhibition", "setting": "[1]; Table 1, S. aureus ATCC 29213, mean ± SD, n = 3", "result": "93.1 ± 0.3", "unit": "%"}, {"measurement": "MIC", "setting": "[2]; Staphylococcus aureus, read-out: MIC", "result": 0.04, "unit": "µg/mL"}, {"measurement": "MIC", "setting": "[3]; Staphylococcus aureus, S. aureus ATCC 1766 (MRSA), read-out: MIC", "result": 0.04, "unit": "µg/mL"}, {"measurement": "MIC", "setting": "[4]; Staphylococcus epidermidis, ATCC35984, S. epidermidis ATCC 35984, read-out: MIC", "result": 0.04, "unit": "µg/mL"}, {"measurement": "bacteria count of infected leg", "setting": "S. aureus ATCC1766; infected leg, after 24 hours, FIG. 7h", "result": "high bacteria count"}, {"measurement": "histopathological analysis of infected leg", "setting": "S. aureus ATCC1766", "result": "clear evidence of bacterial infection, inflammation, and neutrophil infiltration"}, {"measurement": "visible bacterial infection of infected leg (gross photographs)", "setting": "S. aureus ATCC1766", "result": "slightly stronger infection"}]}, {"compound": "mU-mU-mU-mU-T-T-Fx [TOUCAN 7mFx]", "values": [{"measurement": "TOUCAN MIC/NA MIC TOUCAN Efficacy Ratio (TER)", "setting": "[1]; S. aureus ATCC 29213 (MSSA)", "result": 250}, {"measurement": "MIC", "setting": "[1]; S. aureus ATCC 29213 (MSSA), 18 h, TOUCAN as NA equivalent", "result": 20, "unit": "µg/mL"}, {"measurement": "TOUCAN % Growth inhibition", "setting": "[1]; S. aureus ATCC 29213 (MSSA), mean ± SD, n = 3", "result": "92.3 ± 0.09", "unit": "%"}, {"measurement": "TOUCAN MIC/NA MIC TOUCAN Efficacy Ratio (TER)", "setting": "[2]", "result": 1000}, {"measurement": "MIC", "setting": "[2]", "result": 40, "unit": "µg/mL"}, {"measurement": "TOUCAN % Growth inhibition", "setting": "[2]; mean ± SD, n = 3", "result": "92.8 ± 0.7", "unit": "%"}, {"measurement": "growth inhibition, dose response", "setting": "[3]; 0.31 μg/mL", "result": "partial inhibition"}, {"measurement": "growth inhibition, dose response", "setting": "[3]; concentrations from 0.62 to 10 μg/mL", "result": "efficient inhibition"}, {"measurement": "TOUCAN MIC/NA MIC TOUCAN Efficacy Ratio (TER)", "setting": "[3]; S. aureus ATCC 1766 (MRSA)", "result": 15.5}, {"measurement": "MIC", "setting": "[3]; S. aureus ATCC 1766 (MRSA)", "result": 0.62, "unit": "µg/mL"}, {"measurement": "TOUCAN % Growth inhibition", "setting": "[3]; S. aureus ATCC 1766 (MRSA), mean ± SD, n = 3", "result": "93.6 ± 0.1", "unit": "%"}, {"measurement": "MIC", "setting": "[4]; S. epidermidis ATCC 35984", "result": ">40", "unit": "µg/mL"}, {"measurement": "TOUCAN % Growth inhibition", "setting": "[4]; S. epidermidis ATCC 35984, mean ± SD, n = 3", "result": "7.4 ± 4.0", "unit": "%"}, {"measurement": "growth inhibition, dose response", "setting": "[4]; S. epidermidis, all concentrations tested, FIG. 5", "result": "no growth inhibition"}, {"measurement": "times less bacteria recovered compared to Floxuridine group", "setting": "S. aureus ATCC1766; [5]", "result": 2949, "unit": "times"}, {"measurement": "times less bacteria recovered compared to Placebo group", "setting": "S. aureus ATCC1766; [5]", "result": 642, "unit": "times"}, {"measurement": "histopathological analysis of infected leg", "setting": "S. aureus ATCC1766", "result": "minimal inflammation with residual neutrophil infiltration"}, {"measurement": "visible bacterial infection of infected leg (gross photographs)", "setting": "S. aureus ATCC1766", "result": "do not show any visible signs of bacterial infection"}]}]}
